Experimental data as given in US10456414B2, “Methods for treating HCV” (priority 2011, dated 2019).
Like-named read-outs stand apart in the source and are kept apart here.

Legend:
HCV genotype 1a replicon [1] = experiment: HCV genotype 1a replicon assay, EC50 (Biological Example 3); format: cell-based; conditions: Hepatitis C virus, 72 h, 3 days, average ± standard deviation, read-out: EC50
[2] = tested on: Huh-7 cells carrying a HCV genotype 1a replicon; experiment: HCV genotype 1a replicon assay, CC50 by calcein AM (Biological Example 3); format: cell-based; conditions: genotype 1a replicon cells, 3 days, read-out: CC50
Experimental: The CC50 assay was performed first.

[3] = tested on: 1b Huh-luc replicon cells; experiment: Antiviral combination studies with Compound 5, MacSynergy II; format: cell-based, HCV; conditions: in combination with Compound 5, mean ± standard deviation
Experimental: Combination data were analyzed based on the Bliss Independence model using MacSynergy II software. Results of the combination assays were expressed as mean synergy and antagonism volumes (nM^2) calculated at 95% confidence from two independent experiments performed in triplicate.

GT1b wild-type replicon = experiment: microbe, parasite or virus in culture; format: cell-based, HCV; conditions: Hepatitis C virus, 72 h, 3 days
[4] = tested on: GT1b NS5B S282T mutant replicon; experiment: microbe, parasite or virus in culture; format: cell-based, HCV
GT2a wild-type replicon = experiment: microbe, parasite or virus in culture; format: cell-based, HCV; conditions: Hepatitis C virus, 72 h, 3 days
[5] = tested on: GT2a NS5B S282T mutant replicon; experiment: microbe, parasite or virus in culture; format: cell-based, HCV
[6] = tested on: GT2b wild-type chimeric replicon (2b NS5B in GT1b backbone); experiment: microbe, parasite or virus in culture; format: cell-based, HCV; conditions: Hepatitis C virus, 72 h, read-out: EC50 WT
[7] = tested on: GT2b NS5B S282T mutant chimeric replicon; experiment: microbe, parasite or virus in culture; format: cell-based, HCV
[8] = tested on: GT3a wild-type chimeric replicon (3a NS5B in GT1b backbone); experiment: microbe, parasite or virus in culture; format: cell-based, HCV; conditions: Hepatitis C virus, 72 h, read-out: EC50 WT
[9] = tested on: GT3a NS5B S282T mutant chimeric replicon; experiment: microbe, parasite or virus in culture; format: cell-based, HCV
[10] = tested on: GT4a wild-type chimeric replicon (4a NS5B in GT1b backbone); experiment: microbe, parasite or virus in culture; format: cell-based, HCV; conditions: Hepatitis C virus, 72 h, read-out: EC50 WT
[11] = tested on: GT4a NS5B S282T mutant chimeric replicon; experiment: microbe, parasite or virus in culture; format: cell-based, HCV
[12] = Drug-drug interactions of co-administered compounds (exposure); format: in vivo; conditions: co-administered with Compound 2
Experimental: With respect to Compounds 9 and 10, or pharmaceutically acceptable salts thereof, the composition may comprise 10 mg to 1000 mg per day (according to US 2010/0298257). With respect to Compound 11, or pharmaceutically acceptable salts thereof, the composition may comprise 1 mg to 1000 mg per day (according to US 2010/0081628).

[13] = tested on: Genotype 1a replicon, NS5A M28T
[14] = tested on: Genotype 1a replicon, NS5A Q30H
[15] = tested on: Genotype 1a replicon, NS5A Q30R
[16] = tested on: Genotype 1a replicon, NS5A Q30E
[17] = tested on: Genotype 1a replicon, NS5A L31M
[18] = tested on: Genotype 1a replicon, NS5A Y93C
[19] = tested on: Genotype 1a replicon, NS5A Y93H
[20] = tested on: Huh-7 cells carrying an HCV genotype 1a replicon; conditions: with 320 nM Compound 10 and the highest concentration of the listed compound
genotype 1b replicon RNA = experiment: Replicon RNA suppression, 6 day assay, QRT-PCR
[21] = tested on: Genotype 1 b replicon cells; experiment: Compound combination replicon cure assay, colony formation; conditions: 6 days treatment at the same concentrations, then G418 for 14 days
HCV genotype 1a replicon [22] = experiment: HCV genotype 1a replicon assay, EC50 (Biological Example 8); conditions: Hepatitis C virus, 72 h
HCV genotype 1a replicon [23] = experiment: Antiviral combination studies with Compound 4, MacSynergy II
[24] = tested on: Huh-7 cells carrying a HCV genotype 1a replicon; experiment: Cytotoxicity combination studies with Compound 4, MacSynergy II
[25] = HCV genotype 1a replicon assay, CC50 by calcein AM (Biological Example 8); conditions: human, Huh-7 cells carrying an HCV genotype 1a replicon
[26] = in combination with Compound 4, mean ± standard deviation

COC(=O)N[C@H](C(=O)N1CC2(CC2)C[C@H]1c1ncc(-c2ccc3c(c2)C(F)(F)c2cc(-c4ccc5nc([C@@H]6[C@H]7CC[C@H](C7)N6C(=O)[C@@H](NC(=O)OC)C(C)C)[nH]c5c4)ccc2-3)[nH]1)C(C)C [Compound 6, (1-{3-[6-(9,9-Difluoro-7-{2-[5-(2-methoxycarbonylamino-3-methyl-butyryl)-5-aza-spiro[2.4]hept-6-yl]-3H-imidazol-4-yl}-9H-fluoren-2-yl)-1H-benzoimidazol-2-yl]-2-aza-bicyclo[2.2.1]heptane-2-carbonyl}-2-methyl-propyl)-carbamic acid methyl ester]
EC50 (HCV genotype 1a replicon [1]): 0.033 ± 0.011 nM | CC50 [2]: > 44400 nM | Antagonism Volume [3]: 0 ± 0 nM^2 | Synergy Volume [3]: 34 ± 19 nM^2 | EC50 (GT1b wild-type replicon): 0.5 nM | Fold change ([4]; GT1b, S282T EC50 versus corresponding wild type): 0.8 | EC50 ([4]; Hepatitis C virus, GT1B, 72 h, read-out: EC50 S282T): 0.4 nM | EC50 (GT2a wild-type replicon): 5160 nM | Fold change ([5]; GT2a, S282T EC50 versus corresponding wild type): 0.5 | EC50 ([5]; Hepatitis C virus, GT2A, 72 h, read-out: EC50 S282T): 2340 nM | EC50 [6]: 0.5 nM | Fold change ([7]; GT2b, S282T EC50 versus corresponding wild type): 0.9 | EC50 ([7]; Hepatitis C virus, GT2B, 72 h, read-out: EC50 S282T): 0.5 nM | EC50 [8]: 0.4 nM | Fold change ([9]; GT3a, S282T EC50 versus corresponding wild type): 0.6 | EC50 ([9]; Hepatitis C virus, GT3A, 72 h, read-out: EC50 S282T): 0.2 nM | EC50 [10]: 0.5 nM | Fold change ([11]; GT4a, S282T EC50 versus corresponding wild type): 0.8 | EC50 ([11]; Hepatitis C virus, GT4A, 72 h, read-out: EC50 S282T): 0.4 nM | increase of exposure of Compound 6 by Compound 2 [12]: approximately 5 × | Fold Shift in EC50 (DRM EC50/1a-H77 EC50) [13]: 25 | Fold Shift in EC50 (DRM EC50/1a-H77 EC50) [14]: 73 | Fold Shift in EC50 (DRM EC50/1a-H77 EC50) [15]: 170 | Fold Shift in EC50 (DRM EC50/1a-H77 EC50) [16]: 997 | Fold Shift in EC50 (DRM EC50/1a-H77 EC50) [17]: 140 | Fold Shift in EC50 (DRM EC50/1a-H77 EC50) [18]: 327 | Fold Shift in EC50 (DRM EC50/1a-H77 EC50) [19]: 3029 | Cytotoxicity at Highest Concentration of Compound Combinations (% inhibition on cell growth) [20]: 5.0 ± 5.0% | Replicon RNA log drop (genotype 1b replicon RNA): −1.4 log | Compound concentration able to induce replicon RNA 1-1.5 log drop in a 6 day assay (genotype 1b replicon RNA; genotype 1b replicon cells, 6 days): 0.004 nM | Replicon RNA log drop (genotype 1b replicon RNA; single compound at the listed concentration, 6 days, relative to DMSO control (Table XIV)): −1.4 log | Uncured colony number [21]: 634 | EC50 (HCV genotype 1a replicon [22]): 0.032 nM | Interaction (HCV genotype 1a replicon [23]; in combination with Compound 4): Additivity (Additivity: ≤25 and >−25 nM^2%) | Antagonism Volume (HCV genotype 1a replicon [23]; [26]): −7 ± 7 nM^2% | Synergy Volume (HCV genotype 1a replicon [23]; [26]): 19 ± 17 nM^2% | Interaction (cytotoxicity) ([24]; in combination with Compound 4): Additivity (Additivity: ≤25 and >−25 nM^2%) | Antagonism Volume (cytotoxicity) [24, 26]: 0 ± 0 nM^2% | Synergy Volume (cytotoxicity) [24, 26]: 8 ± 4 nM^2% | CC50 at 3 days [25]: > 44400 nM
